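Each compound was tested at five concentrations against cells in 96-well plates for 48 hours. TGI denotes the concentration required for complete inhibition of growth.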

The first assay concerns DU-145 prostate. The experiment in a line: NCI tumour cell line growth inhibition, 48 h.
Consider `c1ccc(-c2nc(-c3ccccc3SSc3ccccc3-c3nc(-c4ccccc4)nn3-c3ccccc3)n(-c3ccccc3)n2)cc1`, for which the TGI was above 100 µM.
In turn, `Cc1ccc([N+](=O)[O-])cc1NC1=NCCO1` returned a TGI above 100 µM.
On to `CC(C)(C)N1CSC(=S)N(Cc2ccco2)C1`, for which the TGI is 15.5 µM.
Consider `O=c1c2cc([N+](=O)[O-])cnc2sn1-c1ccc([N+](=O)[O-])cc1`, for which the TGI is above 100 µM.
The same measure, in the same setting: then `Cc1ccc(C(=O)O)cc1S(=O)(=O)Nn1cnc2ccc(S(=O)(=O)Nc3ccccc3C(=O)O)cc2c1=O`, with above 100 µM; and `S=C1Nc2ccccc2SC1c1ccccc1` (stereo not given), with above 100 µM; and `N#CC1(C#N)N[C@@H](c2ccsc2)[C@H]2C(=O)N(c3ccccc3)C(=O)[C@H]21`, with above 100 µM.

Another assay has as its system SN12C renal. The experiment in a line: NCI tumour cell line growth inhibition, 48 h.
Regarding `CCCCCCc1cc2cc(-c3csc(CC#N)n3)c(=O)oc2cc1O`, the TGI was above 100 µM.
Compound `CN1CCN(C2=NCCO2)CC1` came in with a TGI above 100 µM.
`COc1ccc(-c2cc(O)c3nc4ccccc4n3c2)cc1` showed a TGI above 100 µM.
Still for that read-out and setting: under `O=C1CSC(c2ccc(Cl)cc2)N1c1ccc(Oc2ccc(Cl)cc2)c(Cl)c1` (stereo not given) stands 38.6 µM; under `Nn1c(-c2ccccc2)nn(C(=O)c2ccccc2)c1=O`, above 100 µM.
The same measure, in the same setting: under `CN1CCc2cc(N)cc3c2C1Cc1ccc(O)c(O)c1-3` (stereo not given) stands above 100 µM.
In turn, `CC1(C)N=[N+]([O-])C1(C)C` had a TGI above 100 µM.
As to `COc1ccc2cc(NC(=O)N/N=C\c3ccc([N+](=O)[O-])cc3)ccc2c1`, the TGI is above 100 µM.
`COC(=O)c1c(C)cccc1C1CN=NC12Cc1ccc(C)cc1C2=O` (stereo not given): the TGI is above 100 µM.
Compound `COC(=O)C1SC(SC)=NC12c1ccccc1Nc1ccccc12` (stereo not given) yielded a TGI above 100 µM.
In turn, `CCOC(=O)CSc1c(C(=O)OCC)c(=O)n(-c2ccccc2)c(=S)n1-c1ccccc1` registered a TGI above 100 µM.
The compound `COC(CCC[N+](C)(C)C)CC[N+](C)(C)C` (stereo not given) yielded a TGI above 100 µM.
On to `Cc1ccccc1C(=O)N1CCc2c([nH]c3ccccc23)C1`, for which the TGI turned out to be 34.1 µM.
In turn, `NC(=O)NCCCC(NC(=O)OCCCCn1ccc(=O)[nH]c1=O)C(=O)O` (stereo not given) registered a TGI above 100 µM.
For `CCOC(=O)C(SCCO)C(C(=O)OCC)n1cnc2c(=O)[nH]c(NC(C)=O)nc21` (stereo not given), the TGI is above 100 µM.
`c1ccc(-c2nc(-c3ccccc3SSc3ccccc3-c3nc(-c4ccccc4)nn3-c3ccccc3)n(-c3ccccc3)n2)cc1`: the TGI is above 100 µM.
`Cc1ccc([N+](=O)[O-])cc1NC1=NCCO1` yielded a TGI above 100 µM.
The compound `CC(C)(C)N1CSC(=S)N(Cc2ccco2)C1` had a TGI of 16.7 µM.
Take `O=c1c2cc([N+](=O)[O-])cnc2sn1-c1ccc([N+](=O)[O-])cc1`: the TGI is above 100 µM.
The compound `Cc1ccc(C(=O)O)cc1S(=O)(=O)Nn1cnc2ccc(S(=O)(=O)Nc3ccccc3C(=O)O)cc2c1=O` registered a TGI above 100 µM.
With `S=C1Nc2ccccc2SC1c1ccccc1` (stereo not given), the TGI is above 100 µM.
`N#CC1(C#N)N[C@@H](c2ccsc2)[C@H]2C(=O)N(c3ccccc3)C(=O)[C@H]21` returned a TGI above 100 µM.

A further assay deals with SW-620 colon. The experiment in a line: NCI tumour cell line growth inhibition, 48 h.
The compound `CCCCCCc1cc2cc(-c3csc(CC#N)n3)c(=O)oc2cc1O` registered a TGI above 100 µM.
`CN1CCN(C2=NCCO2)CC1` showed a TGI above 100 µM.
With `COc1ccc(-c2cc(O)c3nc4ccccc4n3c2)cc1`, the TGI is above 100 µM.
Still for that read-out and setting: under `O=C1CSC(c2ccc(Cl)cc2)N1c1ccc(Oc2ccc(Cl)cc2)c(Cl)c1` (stereo not given) stands 45 µM; under `Nn1c(-c2ccccc2)nn(C(=O)c2ccccc2)c1=O`, above 100 µM.
`CN1CCc2cc(N)cc3c2C1Cc1ccc(O)c(O)c1-3` (stereo not given) yielded a TGI above 100 µM.
As to `CC1(C)N=[N+]([O-])C1(C)C`, the TGI was above 100 µM.
Regarding `COc1ccc2cc(NC(=O)N/N=C\c3ccc([N+](=O)[O-])cc3)ccc2c1`, the TGI was above 100 µM.
Compound `COC(=O)c1c(C)cccc1C1CN=NC12Cc1ccc(C)cc1C2=O` (stereo not given) displayed a TGI above 100 µM.
On to `COC(=O)C1SC(SC)=NC12c1ccccc1Nc1ccccc12` (stereo not given), for which the TGI was above 100 µM.
In turn, `CCOC(=O)CSc1c(C(=O)OCC)c(=O)n(-c2ccccc2)c(=S)n1-c1ccccc1` came in with a TGI above 100 µM.
Turning to `COC(CCC[N+](C)(C)C)CC[N+](C)(C)C` (stereo not given), the TGI was above 100 µM.
As to `Cc1ccccc1C(=O)N1CCc2c([nH]c3ccccc23)C1`, the TGI was above 100 µM.
`NC(=O)NCCCC(NC(=O)OCCCCn1ccc(=O)[nH]c1=O)C(=O)O` (stereo not given) gave a TGI above 100 µM.
Consider `CCOC(=O)C(SCCO)C(C(=O)OCC)n1cnc2c(=O)[nH]c(NC(C)=O)nc21` (stereo not given), for which the TGI is above 100 µM.
`c1ccc(-c2nc(-c3ccccc3SSc3ccccc3-c3nc(-c4ccccc4)nn3-c3ccccc3)n(-c3ccccc3)n2)cc1` gave a TGI above 100 µM.
As for `Cc1ccc([N+](=O)[O-])cc1NC1=NCCO1`, the TGI is above 100 µM.
The same measure, in the same setting: then `CC(C)(C)N1CSC(=S)N(Cc2ccco2)C1`, with 11.9 µM.
Compound `O=c1c2cc([N+](=O)[O-])cnc2sn1-c1ccc([N+](=O)[O-])cc1` had a TGI above 100 µM.
Consider `Cc1ccc(C(=O)O)cc1S(=O)(=O)Nn1cnc2ccc(S(=O)(=O)Nc3ccccc3C(=O)O)cc2c1=O`, for which the TGI was above 100 µM.
The compound `N#CC1(C#N)N[C@@H](c2ccsc2)[C@H]2C(=O)N(c3ccccc3)C(=O)[C@H]21` showed a TGI above 100 µM.

The next assay deals with OVCAR-5 ovarian. The experiment in a line: NCI tumour cell line growth inhibition, 48 h.
The compound `CCCCCCc1cc2cc(-c3csc(CC#N)n3)c(=O)oc2cc1O` displayed a TGI above 100 µM.
Still for that read-out and setting: under `CN1CCN(C2=NCCO2)CC1` stands above 100 µM.
For `O=C1CSC(c2ccc(Cl)cc2)N1c1ccc(Oc2ccc(Cl)cc2)c(Cl)c1` (stereo not given), the TGI worked out at 29.6 µM.
Turning to `Nn1c(-c2ccccc2)nn(C(=O)c2ccccc2)c1=O`, the TGI was above 100 µM.
For `CN1CCc2cc(N)cc3c2C1Cc1ccc(O)c(O)c1-3` (stereo not given), the TGI is above 100 µM.
In the case of `CC1(C)N=[N+]([O-])C1(C)C`, the TGI was above 100 µM.
In the case of `COc1ccc2cc(NC(=O)N/N=C\c3ccc([N+](=O)[O-])cc3)ccc2c1`, the TGI is above 100 µM.
`COC(=O)c1c(C)cccc1C1CN=NC12Cc1ccc(C)cc1C2=O` (stereo not given): the TGI is above 100 µM.
`COC(=O)C1SC(SC)=NC12c1ccccc1Nc1ccccc12` (stereo not given) gave a TGI above 100 µM.
The same measure, in the same setting: then `CCOC(=O)CSc1c(C(=O)OCC)c(=O)n(-c2ccccc2)c(=S)n1-c1ccccc1`, with above 100 µM.
Take `COC(CCC[N+](C)(C)C)CC[N+](C)(C)C` (stereo not given): the TGI is above 100 µM.
The compound `Cc1ccccc1C(=O)N1CCc2c([nH]c3ccccc23)C1` registered a TGI of 76.3 µM.
Compound `NC(=O)NCCCC(NC(=O)OCCCCn1ccc(=O)[nH]c1=O)C(=O)O` (stereo not given) gave a TGI above 100 µM.
The compound `CCOC(=O)C(SCCO)C(C(=O)OCC)n1cnc2c(=O)[nH]c(NC(C)=O)nc21` (stereo not given) showed a TGI above 100 µM.
On the same count and under the same terms, then `c1ccc(-c2nc(-c3ccccc3SSc3ccccc3-c3nc(-c4ccccc4)nn3-c3ccccc3)n(-c3ccccc3)n2)cc1`, with above 100 µM; and `Cc1ccc([N+](=O)[O-])cc1NC1=NCCO1`, with above 100 µM.
As for `CC(C)(C)N1CSC(=S)N(Cc2ccco2)C1`, the TGI was 11.7 µM.
In turn, `O=c1c2cc([N+](=O)[O-])cnc2sn1-c1ccc([N+](=O)[O-])cc1` registered a TGI above 100 µM.
Regarding `Cc1ccc(C(=O)O)cc1S(=O)(=O)Nn1cnc2ccc(S(=O)(=O)Nc3ccccc3C(=O)O)cc2c1=O`, the TGI was above 100 µM.
`S=C1Nc2ccccc2SC1c1ccccc1` (stereo not given): the TGI is above 100 µM.

The values above are taken from PubChem BioAssay (NCI).
